Data taken from ChEMBL document CHEMBL1143863, “N(G)-aminoguanidines from primary amines and the preparation of nitric oxide synthase inhibitors” (J Med Chem, 2008).

How the values were obtained:
[1] = biological target: T1, Nitric oxide synthase, inducible (Homo sapiens, UniProt P35228); assay: Binding affinity to truncated iNOS construct (1-490) by spectral assay
[2] = biological target: T1, Nitric oxide synthase, inducible; assay: Inhibition of full length iNOS by high-throughput oxymyoglobin assay
[3] = biological target: T1, Nitric oxide synthase, inducible

T1 sequence (P35228 whole entry, the tested form may be a part): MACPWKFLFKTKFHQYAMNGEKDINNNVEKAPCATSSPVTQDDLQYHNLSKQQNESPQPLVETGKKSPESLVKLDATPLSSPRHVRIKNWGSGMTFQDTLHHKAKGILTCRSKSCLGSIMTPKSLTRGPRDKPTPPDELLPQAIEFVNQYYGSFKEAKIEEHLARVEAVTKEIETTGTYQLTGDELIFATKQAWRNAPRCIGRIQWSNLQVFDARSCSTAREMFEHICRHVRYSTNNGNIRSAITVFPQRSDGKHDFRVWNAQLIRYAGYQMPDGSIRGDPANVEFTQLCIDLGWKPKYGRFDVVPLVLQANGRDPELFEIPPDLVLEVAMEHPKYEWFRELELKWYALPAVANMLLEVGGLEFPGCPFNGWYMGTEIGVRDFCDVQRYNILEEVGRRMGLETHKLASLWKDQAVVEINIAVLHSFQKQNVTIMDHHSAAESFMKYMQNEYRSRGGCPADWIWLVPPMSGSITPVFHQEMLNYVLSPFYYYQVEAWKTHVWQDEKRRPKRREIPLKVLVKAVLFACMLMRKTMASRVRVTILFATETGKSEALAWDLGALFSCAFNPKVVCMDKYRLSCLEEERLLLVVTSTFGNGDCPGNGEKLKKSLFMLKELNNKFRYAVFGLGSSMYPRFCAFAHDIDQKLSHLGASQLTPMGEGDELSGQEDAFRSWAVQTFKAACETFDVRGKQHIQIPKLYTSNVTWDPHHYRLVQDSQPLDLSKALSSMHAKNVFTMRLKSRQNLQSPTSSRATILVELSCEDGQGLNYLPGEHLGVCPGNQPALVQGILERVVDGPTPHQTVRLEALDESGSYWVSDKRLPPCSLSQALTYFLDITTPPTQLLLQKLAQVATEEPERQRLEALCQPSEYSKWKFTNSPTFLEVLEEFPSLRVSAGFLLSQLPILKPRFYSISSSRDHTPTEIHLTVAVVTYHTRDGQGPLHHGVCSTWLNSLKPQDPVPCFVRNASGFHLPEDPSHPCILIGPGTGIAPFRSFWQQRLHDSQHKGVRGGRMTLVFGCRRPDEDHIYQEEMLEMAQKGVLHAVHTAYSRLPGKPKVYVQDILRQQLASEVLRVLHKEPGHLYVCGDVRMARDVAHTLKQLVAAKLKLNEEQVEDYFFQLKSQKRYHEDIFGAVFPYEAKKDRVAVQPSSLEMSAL

N/C(=N/CCC[C@H](N)C(=O)O)N(N)CC(F)(F)F
Kd [1]: 40.4 µM | Ki [2]: 10.5 µM

CN/N=C(\N)NCCC[C@H](N)C(=O)O
Kd [1]: 29 µM | Ki [2]: 16.4 µM

CN(N)/C(N)=N\CCC[C@H](N)C(=O)O
Kd [1]: 10 µM | Ki [2]: 34.1 µM | Kinact [3]: 0.39 min⁻¹

N=C(N)NCCC[C@H](N)C(=O)O [ARGININE]
Kd [1]: 7 µM

N/N=C(\N)NCCC[C@H](N)C(=O)O
Kd [1]: 1.3 µM | Ki [2]: 2.2 µM | Kinact [3]: 0.18 min⁻¹
